Assay results taken from PubChem BioAssay (NCI).
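Results reflect a 48-hour exposure of cells in 96-well plates to compound at five concentrations. Definition used: TGI = concentration required for complete inhibition of growth.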

What was measured:
Test in all cases: DTP human tumour cell line panel, 48 h
MDA-MB-231 breast = system: MDA-MB-231 breast
BT-549 breast = system: BT-549 breast
ACHN renal = system: ACHN renal
MALME-3M melanoma = system: MALME-3M melanoma
OVCAR-3 ovarian = system: OVCAR-3 ovarian
KM12 colon = system: KM12 colon
K-562 leukemia = system: K-562 leukemia
HCT-15 colon = system: HCT-15 colon
MDA-MB-435 = system: MDA-MB-435
SR leukemia = system: SR leukemia
MOLT-4 leukemia = system: MOLT-4 leukemia
786-0 renal = system: 786-0 renal
SK-MEL-28 melanoma = system: SK-MEL-28 melanoma
HT29 colon = system: HT29 colon
SNB-75 CNS = system: SNB-75 CNS
MCF7 breast = system: MCF7 breast
NCI/ADR-RES ovarian = system: NCI/ADR-RES ovarian
SF-295 CNS = system: SF-295 CNS
SK-OV-3 ovarian = system: SK-OV-3 ovarian
RPMI-8226 leukemia = system: RPMI-8226 leukemia
OVCAR-5 ovarian = system: OVCAR-5 ovarian
HOP-92 NSCLC = system: HOP-92 NSCLC
HCT-116 colon = system: HCT-116 colon
CCRF-CEM leukemia = system: CCRF-CEM leukemia
CAKI-1 renal = system: CAKI-1 renal
DU-145 prostate = system: DU-145 prostate
UACC-257 melanoma = system: UACC-257 melanoma
SW-620 colon = system: SW-620 colon
LOX IMVI melanoma = system: LOX IMVI melanoma
RXF 393 renal = system: RXF 393 renal
NCI-H226 lung = system: NCI-H226 lung
MDA-N = system: MDA-N
SN12C renal = system: SN12C renal
SF-539 CNS = system: SF-539 CNS
NCI-H460 lung = system: NCI-H460 lung
TK-10 renal = system: TK-10 renal
COLO 205 colon = system: COLO 205 colon
NCI-H522 lung = system: NCI-H522 lung
A549 NSCLC = system: A549 NSCLC
SK-MEL-2 melanoma = system: SK-MEL-2 melanoma
SK-MEL-5 melanoma = system: SK-MEL-5 melanoma
IGROV1 ovarian = system: IGROV1 ovarian
UACC-62 melanoma = system: UACC-62 melanoma
HOP-62 NSCLC = system: HOP-62 NSCLC
UO-31 renal = system: UO-31 renal
PC-3 prostate = system: PC-3 prostate
SF-268 CNS = system: SF-268 CNS
NCI-H23 lung = system: NCI-H23 lung
OVCAR-4 ovarian = system: OVCAR-4 ovarian
U251 CNS = system: U251 CNS
HL-60(TB) leukemia = system: HL-60(TB) leukemia
A498 renal = system: A498 renal
EKVX NSCLC = system: EKVX NSCLC
OVCAR-8 ovarian = system: OVCAR-8 ovarian
T-47D breast = system: T-47D breast
M14 melanoma = system: M14 melanoma
HS 578T breast = system: HS 578T breast
HCC-2998 colon = system: HCC-2998 colon
SNB-19 CNS = system: SNB-19 CNS

Work on `O=[N+]([O-])c1nccn1CCCNCCCn1ccnc1[N+](=O)[O-]` yielded a TGI (MDA-MB-231 breast) greater than 100 µM, a TGI (BT-549 breast) greater than 100 µM and a TGI (ACHN renal) greater than 100 µM. The TGI (MALME-3M melanoma) was greater than 100 µM, the TGI (OVCAR-3 ovarian) was greater than 100 µM and the TGI (KM12 colon) was greater than 100 µM. For the same compound, the TGI (K-562 leukemia) was greater than 100 µM, the TGI (HCT-15 colon) was greater than 100 µM and the TGI (MDA-MB-435) was greater than 100 µM. For the same compound, the TGI (SR leukemia) was greater than 100 µM, the TGI (MOLT-4 leukemia) was greater than 100 µM and the TGI (786-0 renal) was greater than 100 µM. For the same compound, the TGI (SK-MEL-28 melanoma) was greater than 100 µM, the TGI (HT29 colon) was greater than 100 µM and the TGI (SNB-75 CNS) was greater than 100 µM. It also gave a TGI (MCF7 breast) greater than 100 µM, a TGI (NCI/ADR-RES ovarian) greater than 100 µM and a TGI (SF-295 CNS) greater than 100 µM. The TGI (SK-OV-3 ovarian) was greater than 100 µM, the TGI (RPMI-8226 leukemia) was greater than 100 µM and the TGI (OVCAR-5 ovarian) was greater than 100 µM. For the same compound, the TGI (HOP-92 NSCLC) was greater than 100 µM, the TGI (HCT-116 colon) was greater than 100 µM and the TGI (CCRF-CEM leukemia) was greater than 100 µM. The TGI (CAKI-1 renal) was greater than 100 µM, the TGI (DU-145 prostate) was greater than 100 µM and the TGI (UACC-257 melanoma) was greater than 100 µM. The TGI (SW-620 colon) was greater than 100 µM, the TGI (LOX IMVI melanoma) was greater than 100 µM and the TGI (RXF 393 renal) was greater than 100 µM. It also gave a TGI (NCI-H226 lung) greater than 100 µM, a TGI (MDA-N) greater than 100 µM and a TGI (SN12C renal) greater than 100 µM. The TGI (SF-539 CNS) was greater than 100 µM, the TGI (NCI-H460 lung) was greater than 100 µM and the TGI (TK-10 renal) was greater than 100 µM. For the same compound, the TGI (COLO 205 colon) was greater than 100 µM, the TGI (NCI-H522 lung) was greater than 100 µM and the TGI (A549 NSCLC) was greater than 100 µM. The TGI (SK-MEL-2 melanoma) was greater than 100 µM, the TGI (SK-MEL-5 melanoma) was greater than 100 µM and the TGI (IGROV1 ovarian) was greater than 100 µM. For the same compound, the TGI (UACC-62 melanoma) was greater than 100 µM, the TGI (HOP-62 NSCLC) was greater than 100 µM and the TGI (UO-31 renal) was greater than 100 µM. For the same compound, the TGI (PC-3 prostate) was greater than 100 µM, the TGI (SF-268 CNS) was greater than 100 µM and the TGI (NCI-H23 lung) was greater than 100 µM. It also gave a TGI (OVCAR-4 ovarian) greater than 100 µM, a TGI (U251 CNS) greater than 100 µM and a TGI (HL-60(TB) leukemia) greater than 100 µM. The TGI (A498 renal) was greater than 100 µM, the TGI (EKVX NSCLC) was greater than 100 µM and the TGI (OVCAR-8 ovarian) was greater than 100 µM. For the same compound, the TGI (T-47D breast) was greater than 100 µM, the TGI (M14 melanoma) was greater than 100 µM and the TGI (HS 578T breast) was greater than 100 µM.
Work on `Cc1cc2c(cc1C)C(=O)/C(=N/Nc1ccc(F)cc1)CCO2` yielded a TGI (MDA-MB-231 breast) greater than 100 µM, a TGI (BT-549 breast) greater than 100 µM and a TGI (ACHN renal) greater than 100 µM. For the same compound, the TGI (MALME-3M melanoma) was greater than 100 µM, the TGI (OVCAR-3 ovarian) was greater than 100 µM and the TGI (KM12 colon) was greater than 100 µM. It also gave a TGI (K-562 leukemia) greater than 100 µM, a TGI (HCT-15 colon) greater than 100 µM and a TGI (MDA-MB-435) greater than 100 µM. The TGI (SR leukemia) was greater than 100 µM, the TGI (MOLT-4 leukemia) was greater than 100 µM and the TGI (786-0 renal) was greater than 100 µM. For the same compound, the TGI (SK-MEL-28 melanoma) was greater than 100 µM, the TGI (HT29 colon) was greater than 100 µM and the TGI (MCF7 breast) was greater than 100 µM. The TGI (NCI/ADR-RES ovarian) was greater than 100 µM, the TGI (SF-295 CNS) was greater than 100 µM and the TGI (SK-OV-3 ovarian) was greater than 100 µM. For the same compound, the TGI (RPMI-8226 leukemia) was greater than 100 µM, the TGI (OVCAR-5 ovarian) was greater than 100 µM and the TGI (HOP-92 NSCLC) was greater than 100 µM. It also gave a TGI (HCT-116 colon) greater than 100 µM, a TGI (CCRF-CEM leukemia) greater than 100 µM and a TGI (CAKI-1 renal) greater than 100 µM. It also gave a TGI (DU-145 prostate) greater than 100 µM, a TGI (HCC-2998 colon) greater than 100 µM and a TGI (UACC-257 melanoma) greater than 100 µM. The TGI (SW-620 colon) was greater than 100 µM, the TGI (LOX IMVI melanoma) was greater than 100 µM and the TGI (NCI-H226 lung) was greater than 100 µM. The TGI (MDA-N) was greater than 100 µM, the TGI (SN12C renal) was greater than 100 µM and the TGI (SF-539 CNS) was greater than 100 µM. It also gave a TGI (NCI-H460 lung) greater than 100 µM, a TGI (TK-10 renal) greater than 100 µM and a TGI (COLO 205 colon) greater than 100 µM. For the same compound, the TGI (NCI-H522 lung) was greater than 100 µM, the TGI (A549 NSCLC) was greater than 100 µM and the TGI (SK-MEL-2 melanoma) was 97 µM. For the same compound, the TGI (SK-MEL-5 melanoma) was greater than 100 µM, the TGI (IGROV1 ovarian) was greater than 100 µM and the TGI (UACC-62 melanoma) was greater than 100 µM. The TGI (SNB-19 CNS) was greater than 100 µM, the TGI (HOP-62 NSCLC) was greater than 100 µM and the TGI (UO-31 renal) was greater than 100 µM. It also gave a TGI (PC-3 prostate) greater than 100 µM, a TGI (SF-268 CNS) greater than 100 µM and a TGI (NCI-H23 lung) greater than 100 µM. The TGI (OVCAR-4 ovarian) was greater than 100 µM, the TGI (U251 CNS) was greater than 100 µM and the TGI (HL-60(TB) leukemia) was greater than 100 µM. For the same compound, the TGI (A498 renal) was greater than 100 µM, the TGI (EKVX NSCLC) was greater than 100 µM and the TGI (OVCAR-8 ovarian) was greater than 100 µM. It also gave a TGI (T-47D breast) greater than 100 µM, a TGI (M14 melanoma) greater than 100 µM and a TGI (HS 578T breast) greater than 100 µM.
